Here are results for three compounds from patent US9695205B2, “Amide compounds for treatment of complement mediated disorders” (Achillion Pharmaceuticals, Inc., priority 2014, dated 2017).

One may read the IC50 as the concentration needed to halve the response being measured. A low value points to greater potency.

Human factor D, sequence (P00746 26-253): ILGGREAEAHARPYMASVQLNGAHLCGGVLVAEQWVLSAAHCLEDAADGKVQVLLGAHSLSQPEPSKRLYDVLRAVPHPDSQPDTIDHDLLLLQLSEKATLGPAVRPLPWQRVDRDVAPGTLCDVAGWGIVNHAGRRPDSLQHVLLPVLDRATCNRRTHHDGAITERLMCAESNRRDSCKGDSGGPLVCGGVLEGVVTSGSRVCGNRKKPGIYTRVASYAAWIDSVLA

The assay concerns the target Human factor D (Homo sapiens (Human), UniProt P00746). Kind of assay: Human Factor D Assay. The following applies: Human factor D 80 nM, substrate Z-L-Lys-SBzl and DTNB 100 μM each, pH 7.5. It counts as biochemical. Here is the method: Example 14. Human Factor D Assay
Human factor D (purified from human serum, Complement Technology, Inc.) at 80 nM final concentration is incubated with test compound at various concentrations for 5 minutes at room temperature in 50 mM Tris, 1M NaCl, pH 7.5. A synthetic substrate Z-L-Lys-SBzl and DTNB (Ellman's reagent) are added to final concentrations of 100 μM each. The increase in color is recorded at OD405 nm in a microplate in kinetic mode over 30 minutes with 30 second time points in a spectrofluorimeter. IC50 values are calculated by non-linear regression from the percentage of inhibition of complement factor D activity as a function of test compound concentration.
For `CC(=O)c1cn(CC(=O)N2C[C@H](F)C[C@H]2C(=O)Nc2cccc(-c3ccccc3Cl)c2F)c2ccc(NC(=O)C3CCC(F)(F)C3)cc12` (stereo partly drawn) [Compound 35, (2S,4R)-1-(2-(3-acetyl-5-(3,3-difluorocyclopentanecarboxamido)-1H-indol-1-yl)acetyl)-N-(2′-chloro-2-fluorobiphenyl-3-yl)-4-fluoropyrrolidine-2-carboxamide], the concentration for half-maximal inhibition (IC50) is less than 1000 nM.

`CC(=O)c1cn(CC(=O)N2C[C@H](F)C[C@H]2C(=O)NCc2cccc(Cl)c2F)c2ccc(NC(=O)NCc3nn[nH]n3)cc12` [Compound 2, (2S,4R)-1-(2-(5-(3-((2H-tetrazol-5-yl)methyl)ureido)-3-acetyl-1H-indo-1-yl)acetyl)-N-(3-chloro-2-fluorobenzyl)-4-fluoropyrrolidine-2-carboxamide] had an IC50 of less than 1000 nM.

On to `NC(=O)c1nn(CC(=O)N2C[C@H](F)C[C@H]2C(=O)Nc2cccc(-c3ccccc3Cl)c2F)c2ccc(NC(=O)N3CCCC(F)(F)C3)cc12` [Compound 24, 1-(2-((2S,4R)-2-(2′-chloro-2-fluorobiphenyl-3-ylcarbamoyl)-4-fluoropyrrolidin-1-yl)-2-oxoethyl)-5-(3,3-difluoropiperidine-1-carboxamido)-1H-indazole-3-carboxamide], for which the IC50 was less than 1000 nM.
